From patent US9447051B2, “Diaminopyrimidines and uses thereof” (AbbVie inc., priority 2012, dated 2016)

Tested on: RSV (Group A, Long Strain)
Assay: Antiviral (RSV) assay: cytopathetic effect (CPE) protection assay in HEp-2 cells, MTT readout
Format: cell-based, human respiratory syncytial virus (RSV)
Details: Table 1, 0.2 MOI RSV, 4 days incubation, protection from CPE
Procedure: HEp-2 cells and RSV (Group A, Long Strain) were obtained from the American Type Culture Collection (Manassas, Va.). A cytopathetic effect (CPE) protection assay was performed to determine the ability of a compound to protect the cells from viral infection and thus the CPE induced by viral infection. 96-well plates were first seeded with 3×10^3 HEp-2 cells per well in Dulbecco's modified Eagle's medium (DMEM) containing 10% fetal bovine serum (FBS). One day after the cells were seeded, they were preincubated with serial dilutions of compounds prepared in 100 μL assay medium (DMEM mixed with F12 medium at a 1:1 ratio, supplemented with 2% FBS and 1 mM sodium pyruvate) for 1 hour at 37° C. 100 μL of assay medium containing 0.2 multiplicity of infection (MOI) of RSV was then added to each well of cells. In addition to wells containing infected cells incubated with compounds, each plate also contained replicates of two kinds of controls: (1) Virus control contained cells infected with 0.2 MOI of RSV in assay medium, (2) Uninfected cell control contained cells incubated with assay medium only. After 4 days of incubation at 37° C., the viability of cells was assessed using MTT (Thiazolyl blue tetrazolium bromide, Sigma). A stock solution of MTT, at a concentration of 4 mg/mL in phosphate-buffered saline, was added to all wells at 25 μL per well. Plates were further incubated for 4 hours, and each well was then treated with 50 μL of a solution containing 20% sodium dodecyl sulfate (SDS) and 0.02 N HCl. After an overnight incubation, the plates were measured on a BioTek® microtiter plate reader at wavelengths of 570 nm and 650 nm. The MTT detection is based on the fact that viable (uninfected) cells can reduce the tetrazolium salts into colored formazan products, which can then be quantitated by spectrometry. […] Compounds were tested to determine both their antiviral and toxicity to determine their therapeutic window. Determination of the EC50 and TD50 of these active compounds were repeated one additional time to confirm the window.

[1] = human respiratory syncytial virus, HEp-2, 96 h

| SMILES | EC50 [1] | EC50 |
| --- | --- | --- |
| Cc1nc(NCc2ccccn2)nc(NC2CC3CCC2C3)c1C (centres unmarked) [Example 39, N^4-(bicyclo[2.2.1]hept-2-yl)-5,6-dimethyl-N^2-(pyridin-2-ylmethyl)pyrimidine-2,4-diamine] | 1250 nM |  |
| Cc1nc(NCc2cccc(F)c2)nc(NC2CCCCC2)c1C [Example 13, N^4-cyclohexyl-N^2-(3-fluorobenzyl)-5,6-dimethylpyrimidine-2,4-diamine] | > 1000 nM |  |
| Cc1nc(NCc2cc(Cl)ccn2)nc(NC2CCCCC2)c1C [Example 27, N^2-[(4-chloropyridin-2-yl)methyl]-N^4-cyclohexyl-5,6-dimethylpyrimidine-2,4-diamine] | 42 nM |  |
| Cc1nc(NCc2ccccn2)nc(N[C@H]2CC[C@H](O)CC2)c1C [Example 79, trans-4-({5,6-dimethyl-2-[(pyridin-2-ylmethyl)amino]pyrimidin-4-yl}amino)cyclohexanol] | 620 nM |  |
| Cc1nc(NCc2ccn[nH]2)nc(NC2CCCCC2)c1C [Example 14, N^4-cyclohexyl-5,6-dimethyl-N^2-(1H-pyrazol-5-ylmethyl)pyrimidine-2,4-diamine] | 840 nM |  |
| Cc1cccc(CNc2nc(C)c(C)c(NC3CCCCC3)n2)n1 [Example 19, N^4-cyclohexyl-5,6-dimethyl-N^2-[(6-methylpyridin-2-yl)methyl]pyrimidine-2,4-diamine] | 590 nM |  |
| Cc1nc(NC(C)c2ccccn2)nc(NC2CCCCC2)c1C (centres unmarked) [Example 87, N^4-cyclohexyl-5,6-dimethyl-N^2-[1-(pyridin-2-yl)ethyl]pyrimidine-2,4-diamine] | > 32000 nM |  |
| Cc1nc(NCc2ccccn2)nc(NCC2CCCCC2)c1C [Example 92, N^4-(cyclohexylmethyl)-5,6-dimethyl-N^2-(pyridin-2-ylmethyl)pyrimidine-2,4-diamine] | 1100 nM |  |
| Cc1nc(NCc2ccccn2)nc(NCC2CCCO2)c1C (centres unmarked) [Example 91, 5,6-dimethyl-N^2-(pyridin-2-ylmethyl)-N^4-(tetrahydrofuran-2-ylmethyl)pyrimidine-2,4-diamine] | 2200 nM |  |
| Cc1nc(NCc2ccccn2)nc(NCC2CCCC2)c1C [Example 44, N^4-(cyclopentylmethyl)-5,6-dimethyl-N^2-(pyridin-2-ylmethyl)pyrimidine-2,4-diamine] | 24000 nM |  |
| COc1ccc(CNc2nc(C)c(C)c(NC3CCCCC3)n2)cc1 [Example 8, N^4-cyclohexyl-N^2-(4-methoxybenzyl)-5,6-dimethylpyrimidine-2,4-diamine] | > 3700 nM |  |
| Cc1nc(N[C@H](C)c2ccccc2)nc(NC2CCCCC2)c1C [Example 15, N^4-cyclohexyl-5,6-dimethyl-N^2-[(1R)-1-phenylethyl]pyrimidine-2,4-diamine] | > 1900 nM |  |
| Cc1nc(NCc2ccc(C(C)C)cc2)nc(NC2CCCCC2)c1C [Example 11, N^4-cyclohexyl-N^2-(4-isopropylbenzyl)-5,6-dimethylpyrimidine-2,4-diamine] | > 2000 nM |  |
| Cc1nc(NCc2cn(C)cn2)nc(NC2CCCCC2)c1C [Example 24, N^4-cyclohexyl-5,6-dimethyl-N^2-[(1-methyl-1H-imidazol-4-yl)methyl]pyrimidine-2,4-diamine] | 45 nM |  |
| Cc1nc(NCc2ccccn2)nc(NC2CCCCC2O)c1C (centres unmarked) [Example 42, 2-({5,6-dimethyl-2-[(pyridin-2-ylmethyl)amino]pyrimidin-4-yl}amino)cyclohexanol] | 300 nM |  |
| Cc1nc(NCc2ccccn2)nc(NC2CCC(C)(O)CC2)c1C (stereo not drawn) [Example 38, trans-4-({5,6-dimethyl-2-[(pyridin-2-ylmethyl)amino]pyrimidin-4-yl}amino)-1-methylcyclohexanol] |  | 2400 nM |

More lines, main results first:

| EC50 [1] | SMILES | EC50 |
| --- | --- | --- |
| 1100 nM | Cc1nc(NCc2ccccn2)nc(NC2CCOCC2)c1C [Example 30, 5,6-dimethyl-N^2-(pyridin-2-ylmethyl)-N^4-(tetrahydro-2H-pyran-4-yl)pyrimidine-2,4-diamine] |  |
| 140 nM | Cc1nc(NCc2ccccn2)nc(Nc2c(F)cccc2F)c1C [Example 55, N^4-(2,6-difluorophenyl)-5,6-dimethyl-N^2-(pyridin-2-ylmethyl)pyrimidine-2,4-diamine] |  |
| 930 nM | Cc1nc(NCc2ccccn2)nc(Nc2cccnc2)c1C [Example 93, 5,6-dimethyl-N^4-(pyridin-3-yl)-N^2-(pyridin-2-ylmethyl)pyrimidine-2,4-diamine] |  |
| 220 nM | Cc1nc(NCc2ccccn2)nc(NC2CCC(F)(F)CC2)c1C [Example 32, N^4-(4,4-difluorocyclohexyl)-5,6-dimethyl-N^2-(pyridin-2-ylmethyl)pyrimidine-2,4-diamine] |  |
| 120 nM | Cc1nc(NCc2ccccn2)nc(NC2CCCc3ccccc32)c1C (centres unmarked) [Example 35, 5,6-dimethyl-N^2-(pyridin-2-ylmethyl)-N^4-(1,2,3,4-tetrahydronaphthalen-1-yl)pyrimidine-2,4-diamine] |  |
| 78 nM | Cc1cccc(F)c1Nc1nc(NCc2ccccn2)nc(C)c1C [Example 72, N^4-(2-fluoro-6-methylphenyl)-5,6-dimethyl-N^2-(pyridin-2-ylmethyl)pyrimidine-2,4-diamine] |  |
| 190 nM | Cc1nc(NCc2ccccn2)nc(NC2CCCC(F)(F)C2)c1C (centres unmarked) [Example 80, N^4-(3,3-difluorocyclohexyl)-5,6-dimethyl-N^2-(pyridin-2-ylmethyl)pyrimidine-2,4-diamine] |  |
| 190 nM | Cc1nc(NCc2ccccn2)nc(NC2CCC(F)(F)C2)c1C (centres unmarked) [Example 78, N^4-(3,3-difluorocyclopentyl)-5,6-dimethyl-N^2-(pyridin-2-ylmethyl)pyrimidine-2,4-diamine] |  |
| 52 nM | Cc1ccc(Nc2nc(NCc3ccccn3)nc(C)c2C)cc1 [Example 63, 5,6-dimethyl-N^4-(4-methylphenyl)-N^2-(pyridin-2-ylmethyl)pyrimidine-2,4-diamine] |  |
| 950 nM | Cc1nc(NCc2ccccn2)nc(NC2CCS(=O)(=O)C2)c1C (centres unmarked) [Example 70, N^4-(1,1-dioxidotetrahydrothiophen-3-yl)-5,6-dimethyl-N^2-(pyridin-2-ylmethyl)pyrimidine-2,4-diamine] |  |
| > 5300 nM | Cc1nc(NCc2ccccn2)nc(NC2CCC2)c1C [Example 47, N^4-cyclobutyl-5,6-dimethyl-N^2-(pyridin-2-ylmethyl)pyrimidine-2,4-diamine] |  |
| 24 nM | Cc1cc(F)c(F)cc1Nc1nc(NCc2ccccn2)nc(C)c1C [Example 73, N^4-(4,5-difluoro-2-methylphenyl)-5,6-dimethyl-N^2-(pyridin-2-ylmethyl)pyrimidine-2,4-diamine] |  |
| 7 nM | Cc1ccccc1Nc1nc(NCc2ccccn2)nc(C)c1C [Example 67, 5,6-dimethyl-N^4-(2-methylphenyl)-N^2-(pyridin-2-ylmethyl)pyrimidine-2,4-diamine] |  |
| 40 nM | Cc1nc(NCc2ccccn2)nc(Nc2cccc(Cl)c2)c1C [Example 65, N^4-(3-chlorophenyl)-5,6-dimethyl-N^2-(pyridin-2-ylmethyl)pyrimidine-2,4-diamine] |  |
| 40 nM | Cc1nc(NCc2ccccn2)nc(Nc2cc(F)cc(F)c2)c1C [Example 64, N^4-(3,5-difluorophenyl)-5,6-dimethyl-N^2-(pyridin-2-ylmethyl)pyrimidine-2,4-diamine] |  |
| 230 nM | Cc1nc(NCc2ccccn2)nc(Nc2ccc(C(F)(F)F)cc2)c1C [Example 57, 5,6-dimethyl-N^2-(pyridin-2-ylmethyl)-N^4-[4-(trifluoromethyl)phenyl]pyrimidine-2,4-diamine] |  |
| 4300 nM | Cc1nc(NCc2ccccn2)nc(NC2CCC(O)C2)c1C (centres unmarked) [Example 34, 3-({5,6-dimethyl-2-[(pyridin-2-ylmethyl)amino]pyrimidin-4-yl}amino)cyclopentanol] |  |
| 650 nM | Cc1nc(NCc2ccccn2)nc(Nc2ccnn2C)c1C [Example 74, 5,6-dimethyl-N^4-(1-methyl-1H-pyrazol-5-yl)-N^2-(pyridin-2-ylmethyl)pyrimidine-2,4-diamine] |  |
| 16 nM | Cc1nc(NCc2ccccn2)nc(Nc2c(C(C)C)cccc2C(C)C)c1C [Example 84, N^4-(2,6-diisopropylphenyl)-5,6-dimethyl-N^2-(pyridin-2-ylmethyl)pyrimidine-2,4-diamine] |  |
| 320 nM | Cc1nc(NCc2ccccn2)nc(Nc2ccccc2F)c1C [Example 51, N^4-(2-fluorophenyl)-5,6-dimethyl-N^2-(pyridin-2-ylmethyl)pyrimidine-2,4-diamine] |  |
| 270 nM | CCC(CC)Nc1nc(NCc2ccccn2)nc(C)c1C [Example 48, 5,6-dimethyl-N^4-(pentan-3-yl)-N^2-(pyridin-2-ylmethyl)pyrimidine-2,4-diamine] |  |
| 1300 nM | Cc1nc(NCc2ccccn2)nc(NC2CCN(C)CC2)c1C [Example 81, 5,6-dimethyl-N^4-(1-methylpiperidin-4-yl)-N^2-(pyridin-2-ylmethyl)pyrimidine-2,4-diamine] |  |
